Measurements: patent US11136297B2, “Compositions and methods for treating cancer” (THE REGENTS OF THE UNIVERSITY OF CALIFORNIA, priority 2016, dated 2021)
Values belong to the molecule of their own block, whether it stands above or below them.

Key:
[1] = target: T1, H-Ras(M72C) bound to either GDP or GppNHp (Homo sapiens, UniProt P01112, M72C); assay: Electrophile labeling experiments (percent modification by whole protein LC/MS); type: binding; settings: 4 μM H-Ras(M72C) GDP or GppNHp, 100 μM electrophile, 24 hours
T1 construct: Labeling studies were conducted using the 1-166 H-Ras(M72C) construct containing all endogenous cysteines; His6; made in house; host or cells: Escherichia coli BL21(DE3)
Protocol: Electrophile Labeling Experiments.
Each reaction was analyzed in a 96 well plate format for analysis by LC/MS. Total reaction volumes were 25 μL for single time point labeling experiments and 200 uL for full 24-hour time courses. 25 μL reactions were made in the wells of a V-bottom 96 well plate and 200 uL reactions were made in 1.25 mL eppendorf tubes. All labeling reactions were conducted in Gel Filtration Buffer (20 mM HEPES (pH 7.5), 150 mM NaCl) with no added reductant at room temperature. […] Electrophile stocks were made in DMSO at 10 mM, aliquoted, and frozen. Labeling reactions were started by the addition of the desired volume of 10 mM electrophile stock and mixed thoroughly by pipette. General screening of new electrophiles was done at 100 μM electrophile in triplicate and sampled as a single time point after 24 hours of incubation. For Compound 3, labeling time courses were conducted at 20 μM compound with sampling done every 2 hours for the first 10 hours of incubation and continued after overnight incubation until the protein was fully modified. Reactions were allowed to sit at room temperature in the dark (either covered in aluminum foil or in a bench drawer) until the desired time point was reached. For 24-hour single point labeling experiments, the reaction was directly sampled from the 96 well plate and analyzed by LC/MS. For experiments with multiple time points, 22.5 μL aliquots of the 200 μL master reaction were sampled and quenched by the addition of 2.5 μL of 2% formic acid (also made in Gel Filtration Buffer). This 25 μL quenched sample was then analyzed by LC/MS and the remaining master reaction was allowed to continue reacting after gentle mixing by pipette. The percent modification was analyzed by electrospray mass spectrometry using a Waters Acquity UPLC/ESI-TQD with a 2.1×50 mm Acquity UPLC BEH300 C4 column.

[2] = target: T2, H-Ras(M72C) GppNHp binding to Raf-1-RBD (Homo sapiens, UniProt P01112, M72C); assay: Ras GppNHp in vitro pull down by His6-MBP-Raf-1-RBD; settings: H-Ras(M72C) pre-labeled with compound
T2 construct: and H-Ras (residues 1-166) were transformed into Escherichia coli; His6; made in house; host or cells: Escherichia coli BL21(DE3)
Protocol: Ras GppNHp In Vitro Pull Down Assay by His6-MBP-Raf-1-RBD. For each His6-MBP-Raf-1-RBD in vitro pull down the total volume was 500 μL. Each reaction had the following final composition: Either 20, 80, 200, 400, or 800 nM Ras GppNHp (from 0.2 mg/mL Ras stock), 75 nM BSA (2.5 μg, 5 μL of 0.5 mg/mL BSA stock), 200 nM of His6-MBP-Raf-1-RBD (5.3 μg, 1.2 μL of 4.38 mg/mL stock of His6-MBP-Raf-1-RBDwitt), and Raf Pull Down Buffer to volume (25 mM Tris (pH 7.2), 150 mM NaCl, 5 mM MgCl2, 1% NP-40, 5% glycerol, 20 mM imidazole). Samples were then mixed by gentle rotation at 4° C. for 30 min. While equilibrating, add 50 μL Ni-NTA slurry (Qiagen) to a cellulose acetate spin cup and spin at 5,000 rpm on a tabletop centrifuge for 30 seconds. Wash the beads with 400 μL of Raf Pull Down Buffer to wash away bead storage buffer. Before adding each pull down solution, take 10 μL and save as a loading control sample. To each spin cup filled with washed Ni-NTA beads, add the remaining equilibrated pull down solution, seal the spin cup with parafilm and let rotate at 4° C. for 30 more minutes. After mixing, centrifuge the sample for 30 seconds at 5,000 rpm. Toss flow through. Wash the beads X 5 with 400 μL of Raf Pull Down Buffer. After last wash, centrifuge one last time to remove any excess buffer stuck to the beads. […] Blots were read out using LICOR compatible secondary antibodies. […]

[3] = target: T2, H-Ras(M72C) GppNHp binding to Raf-1-RBD; assay: Raf-1-RBD pull-down of labeled H-Ras(M72C) GppNHp; settings: H-Ras(M72C) GppNHp pre-labeled with compound; various concentrations of H-Ras
Protocol: FIGS. 29A-29D. […] FIG. 29D: Reconstruction of Ras cycle is achieved by inducing nucleotide exchange of 100 nM Ras by various concentrations of SOS^cat for either 1 or 2 hours and subsequent pull-down by Raf-1-RBD.
FIGS. 33A-33D. […] In FIG. 33B) through FIG. 33D), normalized pull-down signals are shown below the blot. S. E. M for each signal, number of replicates, and […] for each comparative Standard T-Test are summarized herein (see Tables 33B, 33C, and 33D). […] Comparative statistics were done for normalized pull-down signals between protein constructs of the same condition (i.e. in FIG. 33B) and FIG. 33C), column 1 for unlabeled and 1 for labeled protein, 2 for unlabeled and 2 for labeled, and so on were statistically compared, and in FIG. 33D) only the +SOS^cat and +GppNHp lanes were compared across protein constructs). FIG. 33A) Cartoon representation of pull down protocol. […] Reported values are quantified pull-down signals normalized to input. FIG. 33B) Cartoon representation of pull down protocol. […] FIG. 33C) Cartoon representation of pull down protocol. […] FIG. 33D) Cartoon representation of pull down protocol. Ras activation is achieved by catalyzing nucleotide exchange by SOS^cat and indirectly reading out activated Ras by subsequent pull down by Raf-1-RBD.

[4] = target: T3, 1-169 K-Ras(M72C) GDP (Homo sapiens, UniProt P01116, M72C); assay: Disulfide tethering screen, percent modification by intact protein mass spectrometry; type: binding; settings: screening βME 1 mM
T3 construct: Untagged recombinant 1-169 K-Ras(M72C) GDP; His6 (cleaved yes); made in house; host or cells: Escherichia coli BL21(DE3)
Excerpt: In some embodiments, a library of disulfide compounds may be screened against a cysteine-containing protein in the presence of a reducing agent such as β-mercaptoethanol (BME). Compounds with complementary binding contacts with a region of the protein near the cysteine may shift the disulfide exchange equilibrium away from BME modification of the cysteine thiol and enhance the ratio of the hit ligand bound to the cysteine. The resulting mass change of the protein can be readily detected by mass spectrometry, and the percentage of modified protein can be used as a measure of potency. Compounds which exchange with the cysteine without conferring affinity should exchange with reducing agent equally well and will not shift the equilibrium toward protein modification. The potency of various compounds at a given concentration of BME may be compared by calculating the dose-response 50 (DR50), which is the concentration of compound at which the protein becomes 50% modified.
A tethering library of 960 disulfides were screened against 1-169 K-Ras(M72C) GDP using intact protein mass spectrometry to monitor percent modification (See Methods, and FIG. 37). […] To better prioritize tethering fragments, a βME50 value (the concentration of βME needed to reduce disulfide fragment modification to 50%) was determined for each compound. […]

[5] = target: T4, full-length wild-type K-Ras (Homo sapiens, UniProt P01116); assay: Disulfide fragment labeling of full-length wild-type K-Ras (Cys 72 selectivity); type: binding; settings: wild-type K-Ras contains 4 native cysteine residues
T4 construct: His6; made in house; host or cells: Escherichia coli BL21(DE3)

[6] = target: H-Ras(M72C) GppNHp (Homo sapiens, UniProt P01112, M72C); assay: βME50 and percent labeling of tethering fragments, GppNHp state; type: binding; parameters: Labeling studies were conducted using the 1-166 H-Ras(M72C) construct containing all endogenous cysteines; His6; made in house; host or cells: Escherichia coli BL21(DE3); settings: disulfide tethering at Cys 72
Protocol: FIG. 32. […] Percent labeling against H-Ras(M72C) GDP and GppNHp at the screening βME concentration (1 mM) are graphed.
(§1) A tethering library of 960 disulfides were screened against 1-169 K-Ras(M72C) GDP using intact protein mass spectrometry to monitor percent modification (See Methods, and FIG. 37). […] To better prioritize tethering fragments, a βME50 value (the concentration of βME needed to reduce disulfide fragment modification to 50%) was determined for each compound. A higher βME50 value corresponds to a better fragment as it can bind with increasing concentrations of competitive thiol (Erlanson et al., 2004; Yang et al., 2009).

[7] = target: T5, K-Ras(M72C) GDP (Homo sapiens, UniProt P01116, M72C); assay: βME50 determination of tethering fragments; type: binding; settings: relative to 2C07
T5 construct: Untagged recombinant 1-169 K-Ras(M72C) GDP; His6 (cleaved yes); made in house; host or cells: Escherichia coli BL21(DE3)
Protocol: as §1
We next explored small chemical modifications to 2C07.

[8] = target: H-Ras(M72C) GDP (Homo sapiens, UniProt P01112, M72C); assay: Competition labeling experiments (Compound 3 vs Compound 4); type: binding; parameters: Labeling studies were conducted using the 1-166 H-Ras(M72C) construct containing all endogenous cysteines; His6; made in house; host or cells: Escherichia coli BL21(DE3); settings: 20 μM Compound 3, varying Compound 4 (0-180), 4 μM H-Ras(M72C) GDP
Protocol: Competition Labeling Experiments.
[…] were made in Gel Filtration buffer (20 mM HEPES (pH 7.5), 150 mM NaCl) with no added reductant at room temperature. The final concentrations of each reagent were as follows: […], 1 mM MgCl2, […], X mM Compound 4, and a total DMSO concentration of 4% by volume. Compound 4 was varied from OX (0 mM), 1× (20 mM), 3× (60 mM), and 9× (180 mM) respectively. Adding the desired volume of Gel Filtration Buffer, MgCl2, DMSO, and 10 mM compound stocks of Compounds 3 and 4 was done first and mixed thoroughly before protein was added. Reactions were started by the addition and gentle mixing by pipette of concentrated Ras stocks diluted into the master reaction down to […]. Each reaction was set in triplicate and allowed to react at room temperature in the dark (either covered in aluminum foil or in a bench drawer) until the desired time point was reached. At each time point, […] aliquots of each 200 mL master reaction was sampled and quenched by the addition of […] of 2% formic acid (also made in Gel Filtration Buffer). This 25 mL quenched sample was then analyzed by LC/MS and the remaining master reaction was allowed to continue reacting after gentle mixing by pipette. The percent modification was analyzed by electrospray mass spectrometry using a Waters Acquity UPLC/ESI-TQD with a 2.1×50 mm Acquity UPLC BEH300 C4 column.

[9] = target: T6, WT H-Ras (Homo sapiens, UniProt P01112); assay: BioLayer interferometry (BLI) reversible binding
T6 construct: made in house; host or cells: Escherichia coli BL21(DE3)

Percent modification (labeling of Cys 72) [1]: no detectable labeling
SMILES: C=CC(=O)Nc1ccc(NC(=O)c2cnn(-c3ccc(OC)cc3)c2C(F)(F)F)cc1 [Compound 1, N-(4-acrylamidophenyl)-1-(4-methoxyphenyl)-5-(trifluoromethyl)-1H-pyrazole-4-carboxamide]

Raf-1-RBD binding (pull down), labeled vs unlabeled H-Ras(M72C) [2]: did not inhibit Raf-1-RBD binding
Raf-1-RBD binding [3]: do not inhibit Raf RBD binding
Percent modification (labeling of Cys 72) [1]: significant increase
SMILES: C=CC(=O)Nc1cccc(NC(=O)c2cnn(-c3ccc(OC)cc3)c2C(F)(F)F)c1 [Compound 2, N-(3-acrylamidophenyl)-1-(4-methoxyphenyl)-5-(trifluoromethyl)-1H-pyrazole-4-carboxamide]

percent modification [4]: 52.8%
modification of full-length wild-type K-Ras [5]: did not modify
labeling of H-Ras(M72C) GppNHp [6]: labeled
SMILES: CN(C)CCSSCCCNC(=O)C(=O)c1c[nH]c2ccccc12 [Compound 2B02, N-(3-((2-(dimethylamino)ethyl)disulfanyl)propyl)-2-(1H-indol-3-yl)-2-oxoacetamide]

change in βME50 [7]: small decrease
SMILES: COc1ccc(-n2ncc(C(=O)NCCCCSSCCN(C)C)c2C(F)(F)F)cc1 [Compound 2C07b, N-(4-((2-(dimethylamino)ethyl)disulfanyl)butyl)-1-(4-methoxyphenyl)-5-(trifluoromethyl)-1H-pyrazole-4-carboxamide]

SMILES: COc1ccc(-n2cc(C(=O)NCCCSSCCN(C)C)cn2)cc1 [Compound 2C07c, N-(3-((2-(dimethylamino)ethyl)disulfanyl)propyl)-1-(4-methoxyphenyl)-1H-pyrazole-4-carboxamide]
change in βME50 [7]: drastic decrease

rate of Compound 3 labeling (% labeled per hour) in presence of Compound 4 [8]: dose dependent decrease
rate of Compound 3 labeling (% labeled per hour) in presence of Compound 4 ([8]; listed as compound 4): dose-dependent decrease
reversible binding by BLI [9]: unable to detect measurable binding
SMILES: CCC(=O)Nc1cc(Cl)cc(NC(=O)c2cnn(-c3ccc(OC)cc3)c2C(F)(F)F)c1 [Compound 4, N-(3-chloro-5-propionamidophenyl)-1-(4-methoxyphenyl)-5-(trifluoromethyl)-1H-pyrazole-4-carboxamide]
